Data published in PubChem BioAssay (NCI).
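A five-concentration, 48-hour dose response in 96-well plates underlies each endpoint, interpolated linearly between surrounding concentrations. The concentration for full growth arrest is given as TGI.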

Key:
Experiment in all cases: growth of human tumour cells (NCI), 48 h
786-0 renal = system: 786-0 renal
A498 renal = system: A498 renal
A549 NSCLC = system: A549 NSCLC
ACHN renal = system: ACHN renal
CAKI-1 renal = system: CAKI-1 renal
CCRF-CEM leukemia = system: CCRF-CEM leukemia
COLO 205 colon = system: COLO 205 colon
DLD-1 colon = system: DLD-1 colon
DMS 114 small cell lung = system: DMS 114 small cell lung
DMS 273 small cell lung = system: DMS 273 small cell lung
EKVX NSCLC = system: EKVX NSCLC
HCC-2998 colon = system: HCC-2998 colon
HCT-116 colon = system: HCT-116 colon
HCT-15 colon = system: HCT-15 colon
HL-60(TB) leukemia = system: HL-60(TB) leukemia
HOP-18 NSCLC = system: HOP-18 NSCLC
HOP-62 NSCLC = system: HOP-62 NSCLC
HOP-92 NSCLC = system: HOP-92 NSCLC
HT29 colon = system: HT29 colon
IGROV1 ovarian = system: IGROV1 ovarian
K-562 leukemia = system: K-562 leukemia
KM12 colon = system: KM12 colon
KM20L2 colon = system: KM20L2 colon
LOX IMVI melanoma = system: LOX IMVI melanoma
LXFL 529 NSCLC = system: LXFL 529 NSCLC
M14 melanoma = system: M14 melanoma
M19-MEL melanoma = system: M19-MEL melanoma
MALME-3M melanoma = system: MALME-3M melanoma
MOLT-4 leukemia = system: MOLT-4 leukemia
NCI-H226 lung = system: NCI-H226 lung
NCI-H23 lung = system: NCI-H23 lung
NCI-H460 lung = system: NCI-H460 lung
NCI-H522 lung = system: NCI-H522 lung
OVCAR-3 ovarian = system: OVCAR-3 ovarian
OVCAR-4 ovarian = system: OVCAR-4 ovarian
OVCAR-5 ovarian = system: OVCAR-5 ovarian
OVCAR-8 ovarian = system: OVCAR-8 ovarian
RPMI-8226 leukemia = system: RPMI-8226 leukemia
RXF 393 renal = system: RXF 393 renal
SF-268 CNS = system: SF-268 CNS
SF-295 CNS = system: SF-295 CNS
SF-539 CNS = system: SF-539 CNS
SK-MEL-2 melanoma = system: SK-MEL-2 melanoma
SK-MEL-28 melanoma = system: SK-MEL-28 melanoma
SK-MEL-5 melanoma = system: SK-MEL-5 melanoma
SK-OV-3 ovarian = system: SK-OV-3 ovarian
SN12C renal = system: SN12C renal
SNB-19 CNS = system: SNB-19 CNS
SNB-75 CNS = system: SNB-75 CNS
SNB-78 CNS = system: SNB-78 CNS
SR leukemia = system: SR leukemia
SW-620 colon = system: SW-620 colon
TK-10 renal = system: TK-10 renal
U251 CNS = system: U251 CNS
UACC-257 melanoma = system: UACC-257 melanoma
UACC-62 melanoma = system: UACC-62 melanoma
UO-31 renal = system: UO-31 renal
XF 498 CNS = system: XF 498 CNS

## CCOC(=O)c1c(NNc2ccccc2)nc2ccccc2c1-c1ccccc1
786-0 renal
  TGI: > 100 µM
A498 renal
  TGI: > 100 µM
A549 NSCLC
  TGI: 95.7 µM
ACHN renal
  TGI: > 100 µM
CAKI-1 renal
  TGI: > 100 µM
CCRF-CEM leukemia
  TGI: 58.3 µM
COLO 205 colon
  TGI: > 100 µM
DLD-1 colon
  TGI: > 100 µM
DMS 114 small cell lung
  TGI: 32.9 µM
DMS 273 small cell lung
  TGI: > 100 µM
EKVX NSCLC
  TGI: > 100 µM
HCC-2998 colon
  TGI: > 100 µM
HCT-116 colon
  TGI: 47.2 µM
HCT-15 colon
  TGI: > 100 µM
HL-60(TB) leukemia
  TGI: 44.3 µM
HOP-18 NSCLC
  TGI: 77.3 µM
HOP-62 NSCLC
  TGI: 59.3 µM
HOP-92 NSCLC
  TGI: > 100 µM
HT29 colon
  TGI: > 100 µM
IGROV1 ovarian
  TGI: > 100 µM
K-562 leukemia
  TGI: 77.9 µM
KM12 colon
  TGI: > 100 µM
KM20L2 colon
  TGI: > 100 µM
LOX IMVI melanoma
  TGI: 40.1 µM
LXFL 529 NSCLC
  TGI: > 100 µM
M14 melanoma
  TGI: 80.8 µM
M19-MEL melanoma
  TGI: 52.5 µM
MALME-3M melanoma
  TGI: 64.3 µM
MOLT-4 leukemia
  TGI: 42.9 µM
NCI-H226 lung
  TGI: 92 µM
NCI-H23 lung
  TGI: 50.9 µM
NCI-H460 lung
  TGI: 67.3 µM
NCI-H522 lung
  TGI: 56.8 µM
OVCAR-3 ovarian
  TGI: 67 µM
OVCAR-4 ovarian
  TGI: > 100 µM
OVCAR-5 ovarian
  TGI: > 100 µM
OVCAR-8 ovarian
  TGI: 82.2 µM
RPMI-8226 leukemia
  TGI: 47.3 µM
RXF 393 renal
  TGI: 86.3 µM
SF-268 CNS
  TGI: 91.9 µM
SF-295 CNS
  TGI: > 100 µM
SF-539 CNS
  TGI: 74.9 µM
SK-MEL-2 melanoma
  TGI: 32.1 µM
SK-MEL-28 melanoma
  TGI: > 100 µM
SK-MEL-5 melanoma
  TGI: 35.2 µM
SK-OV-3 ovarian
  TGI: > 100 µM
SN12C renal
  TGI: 92.3 µM
SNB-19 CNS
  TGI: > 100 µM
SNB-75 CNS
  TGI: 93.2 µM
SNB-78 CNS
  TGI: 88.6 µM
SR leukemia
  TGI: 56.4 µM
SW-620 colon
  TGI: > 100 µM
TK-10 renal
  TGI: > 100 µM
U251 CNS
  TGI: > 100 µM
UACC-257 melanoma
  TGI: > 100 µM
UACC-62 melanoma
  TGI: 32 µM
UO-31 renal
  TGI: 66.3 µM

## COc1ccccc1N=NC(C(=O)c1ccccc1)C(=O)c1ccccc1
786-0 renal
  TGI: > 100 µM
A498 renal
  TGI: > 100 µM
A549 NSCLC
  TGI: 78.3 µM
ACHN renal
  TGI: 83.6 µM
CAKI-1 renal
  TGI: 77.3 µM
CCRF-CEM leukemia
  TGI: 60 µM
COLO 205 colon
  TGI: > 100 µM
DLD-1 colon
  TGI: 54.9 µM
DMS 114 small cell lung
  TGI: 40.5 µM
DMS 273 small cell lung
  TGI: 57.9 µM
EKVX NSCLC
  TGI: 67.8 µM
HCC-2998 colon
  TGI: 70.4 µM
HCT-116 colon
  TGI: 28.6 µM
HCT-15 colon
  TGI: 47.6 µM
HL-60(TB) leukemia
  TGI: 33.7 µM
HOP-62 NSCLC
  TGI: 52.1 µM
HT29 colon
  TGI: 82.3 µM
IGROV1 ovarian
  TGI: > 100 µM
K-562 leukemia
  TGI: > 100 µM
KM12 colon
  TGI: > 100 µM
KM20L2 colon
  TGI: 58.2 µM
LOX IMVI melanoma
  TGI: 51.1 µM
LXFL 529 NSCLC
  TGI: > 100 µM
M14 melanoma
  TGI: 31.6 µM
M19-MEL melanoma
  TGI: 41.3 µM
MALME-3M melanoma
  TGI: 88.9 µM
MOLT-4 leukemia
  TGI: 60.4 µM
NCI-H226 lung
  TGI: 35.9 µM
NCI-H23 lung
  TGI: 68.1 µM
NCI-H460 lung
  TGI: 82.2 µM
NCI-H522 lung
  TGI: 47 µM
OVCAR-3 ovarian
  TGI: > 100 µM
OVCAR-4 ovarian
  TGI: 74.2 µM
OVCAR-5 ovarian
  TGI: 71.5 µM
OVCAR-8 ovarian
  TGI: > 100 µM
RPMI-8226 leukemia
  TGI: 58.7 µM
SF-268 CNS
  TGI: > 100 µM
SF-295 CNS
  TGI: 87.6 µM
SF-539 CNS
  TGI: > 100 µM
SK-MEL-2 melanoma
  TGI: 53.4 µM
SK-MEL-28 melanoma
  TGI: > 100 µM
SK-MEL-5 melanoma
  TGI: 54.5 µM
SK-OV-3 ovarian
  TGI: 89.4 µM
SN12C renal
  TGI: 53.1 µM
SNB-19 CNS
  TGI: 70.1 µM
SNB-75 CNS
  TGI: 82.3 µM
SW-620 colon
  TGI: > 100 µM
TK-10 renal
  TGI: > 100 µM
U251 CNS
  TGI: > 100 µM
UACC-257 melanoma
  TGI: 89.2 µM
UACC-62 melanoma
  TGI: 52.3 µM
UO-31 renal
  TGI: 37.3 µM
XF 498 CNS
  TGI: 53.5 µM
